Measurements as given in ChEMBL document CHEMBL1201862, “PubChem BioAssay data set” (2004).
Activity calls are given as the source filed them.

How the values were obtained:
[1] = HeLa cell cytotoxicity, dose response, cytotoxicity control for MgcRacGAP inhibitor project (AID 624300); format: functional
Streptococcus = test: Group A Streptococcus viability loss, dose response, counter-screen for streptokinase expression inhibitor project, luminescence, BacTiterGlo (AID 1915); format: functional, organism-based;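 also: potency for reduction of bacterial viability or growth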
[2] = biological target: FAD-linked sulfhydryl oxidase ALR (Homo sapiens, UniProt P55789); test: inhibitors of human ALR sulfhydryl oxidase, dose response, biochemical, H2O2 detection, luminescence, cherry-pick (AID 493248)
Streptokinase A = biological target: T1, Streptokinase A (Streptococcus pyogenes serotype M1, UniProt P10520); test: S. pyogenes streptokinase expression inhibitors, potency, dose response, plasminogen activation absorbance, OD405 (AID 1914); format: functional, Streptococcus pyogenes M1 GAS;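 also: secreted streptokinase activity via plasminogen activation per viability signal from cell pellet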
T1 sequence (P10520 whole entry): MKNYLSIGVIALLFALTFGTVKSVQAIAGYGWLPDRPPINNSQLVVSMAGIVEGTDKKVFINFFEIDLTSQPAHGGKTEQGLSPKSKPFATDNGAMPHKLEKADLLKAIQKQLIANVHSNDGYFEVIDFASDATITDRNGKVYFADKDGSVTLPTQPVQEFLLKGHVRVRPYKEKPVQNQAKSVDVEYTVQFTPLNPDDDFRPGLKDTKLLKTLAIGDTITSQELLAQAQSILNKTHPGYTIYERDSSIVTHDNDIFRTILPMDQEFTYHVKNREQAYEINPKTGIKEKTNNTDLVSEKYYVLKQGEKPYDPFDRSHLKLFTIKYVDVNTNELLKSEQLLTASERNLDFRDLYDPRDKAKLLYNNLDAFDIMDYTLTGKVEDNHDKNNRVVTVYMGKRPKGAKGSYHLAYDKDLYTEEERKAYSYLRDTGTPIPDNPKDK

[3] = system: Streptococcus sp. 'group A'; test: growth inhibition of control SK(-) GAS strain, dose response, counter-screen for streptokinase expression inhibitor project, luminescence, kanamycin, BacTiterGlo, confirmation (AID 1900); format: functional, organism-based
[4] = biological target: T2, Rac GTPase-activating protein 1 (Homo sapiens, UniProt Q9H0H5); test: MgcRacGAP GTPase-activating activity inhibitors, confirmation, biochemical, ADP Hunter fluorescence, primary and confirmatory (AID 624330); format: functional
T2 sequence (Q9H0H5 whole entry): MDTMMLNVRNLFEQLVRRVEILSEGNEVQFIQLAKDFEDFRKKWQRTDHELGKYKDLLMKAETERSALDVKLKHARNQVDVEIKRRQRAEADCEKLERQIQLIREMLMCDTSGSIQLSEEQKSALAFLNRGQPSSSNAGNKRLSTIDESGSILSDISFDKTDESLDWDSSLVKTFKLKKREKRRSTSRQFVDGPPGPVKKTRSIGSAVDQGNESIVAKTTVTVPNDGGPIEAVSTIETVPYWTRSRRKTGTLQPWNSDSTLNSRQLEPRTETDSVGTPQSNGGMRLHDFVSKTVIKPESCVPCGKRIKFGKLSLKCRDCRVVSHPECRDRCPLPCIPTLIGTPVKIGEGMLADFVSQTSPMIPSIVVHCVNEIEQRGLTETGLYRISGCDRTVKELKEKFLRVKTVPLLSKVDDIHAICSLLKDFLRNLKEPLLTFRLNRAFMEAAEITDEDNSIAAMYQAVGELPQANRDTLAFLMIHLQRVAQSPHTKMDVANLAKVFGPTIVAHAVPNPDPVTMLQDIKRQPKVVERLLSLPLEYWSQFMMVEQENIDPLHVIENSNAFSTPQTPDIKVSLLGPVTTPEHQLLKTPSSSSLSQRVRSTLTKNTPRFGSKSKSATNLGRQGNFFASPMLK

Caspase-6 = biological target: T3, Caspase-6 (Homo sapiens, UniProt P55212); test: human caspase-6 inhibitors, dose response, biochemical, VEID-R110 fluorescence, cherry-pick (AID 720632)
T3 sequence (P55212 whole entry): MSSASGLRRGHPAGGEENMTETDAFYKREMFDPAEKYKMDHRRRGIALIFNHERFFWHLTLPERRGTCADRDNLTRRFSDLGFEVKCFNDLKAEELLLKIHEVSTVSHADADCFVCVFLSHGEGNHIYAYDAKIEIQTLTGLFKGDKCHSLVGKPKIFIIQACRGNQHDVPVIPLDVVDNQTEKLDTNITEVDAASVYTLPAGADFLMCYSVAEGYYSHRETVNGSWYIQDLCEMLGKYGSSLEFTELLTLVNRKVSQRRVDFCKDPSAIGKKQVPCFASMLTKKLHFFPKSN

[5] = biological target: T4, Sentrin-specific protease 6 (Homo sapiens, UniProt Q9GZR1); format: functional;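 also: Luminescence-based dose-response confirmatory assay of SENP6 inhibition, following up an ultra-high-throughput screen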
T4 sequence (Q9GZR1 whole entry): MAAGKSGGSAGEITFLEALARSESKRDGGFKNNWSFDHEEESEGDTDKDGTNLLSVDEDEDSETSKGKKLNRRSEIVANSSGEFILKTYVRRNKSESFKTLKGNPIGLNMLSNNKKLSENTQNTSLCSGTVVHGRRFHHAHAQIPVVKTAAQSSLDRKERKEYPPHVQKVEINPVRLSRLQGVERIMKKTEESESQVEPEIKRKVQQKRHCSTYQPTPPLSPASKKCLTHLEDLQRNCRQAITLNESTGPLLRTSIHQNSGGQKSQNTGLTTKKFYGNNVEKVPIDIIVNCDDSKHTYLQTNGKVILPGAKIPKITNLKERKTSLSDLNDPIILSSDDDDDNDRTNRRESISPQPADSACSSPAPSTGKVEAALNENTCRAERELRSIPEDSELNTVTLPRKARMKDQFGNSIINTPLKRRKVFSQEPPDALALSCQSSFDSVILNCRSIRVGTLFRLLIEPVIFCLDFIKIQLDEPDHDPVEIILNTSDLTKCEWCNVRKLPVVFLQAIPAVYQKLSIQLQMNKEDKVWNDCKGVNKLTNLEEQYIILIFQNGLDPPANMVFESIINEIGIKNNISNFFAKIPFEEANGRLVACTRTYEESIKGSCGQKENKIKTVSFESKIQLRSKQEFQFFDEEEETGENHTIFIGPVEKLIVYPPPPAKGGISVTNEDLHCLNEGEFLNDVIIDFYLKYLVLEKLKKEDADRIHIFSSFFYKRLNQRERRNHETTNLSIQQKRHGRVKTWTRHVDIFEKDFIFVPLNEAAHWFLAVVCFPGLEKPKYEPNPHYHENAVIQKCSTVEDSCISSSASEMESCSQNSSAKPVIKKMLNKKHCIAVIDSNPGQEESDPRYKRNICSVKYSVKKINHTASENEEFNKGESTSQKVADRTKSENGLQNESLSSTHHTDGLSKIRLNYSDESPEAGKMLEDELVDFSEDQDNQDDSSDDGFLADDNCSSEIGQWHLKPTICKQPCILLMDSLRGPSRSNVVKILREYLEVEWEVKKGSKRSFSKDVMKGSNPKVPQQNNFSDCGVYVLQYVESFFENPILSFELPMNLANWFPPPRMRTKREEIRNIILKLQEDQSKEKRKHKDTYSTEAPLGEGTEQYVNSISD

[6] = biological target: T5, Sentrin-specific protease 7 (Homo sapiens, UniProt Q9BQF6); format: functional;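 also: Luminescence-based dose-response confirmation of ultra-high-throughput screening hits, measuring inhibition of SENP7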
T5 sequence (Q9BQF6 whole entry): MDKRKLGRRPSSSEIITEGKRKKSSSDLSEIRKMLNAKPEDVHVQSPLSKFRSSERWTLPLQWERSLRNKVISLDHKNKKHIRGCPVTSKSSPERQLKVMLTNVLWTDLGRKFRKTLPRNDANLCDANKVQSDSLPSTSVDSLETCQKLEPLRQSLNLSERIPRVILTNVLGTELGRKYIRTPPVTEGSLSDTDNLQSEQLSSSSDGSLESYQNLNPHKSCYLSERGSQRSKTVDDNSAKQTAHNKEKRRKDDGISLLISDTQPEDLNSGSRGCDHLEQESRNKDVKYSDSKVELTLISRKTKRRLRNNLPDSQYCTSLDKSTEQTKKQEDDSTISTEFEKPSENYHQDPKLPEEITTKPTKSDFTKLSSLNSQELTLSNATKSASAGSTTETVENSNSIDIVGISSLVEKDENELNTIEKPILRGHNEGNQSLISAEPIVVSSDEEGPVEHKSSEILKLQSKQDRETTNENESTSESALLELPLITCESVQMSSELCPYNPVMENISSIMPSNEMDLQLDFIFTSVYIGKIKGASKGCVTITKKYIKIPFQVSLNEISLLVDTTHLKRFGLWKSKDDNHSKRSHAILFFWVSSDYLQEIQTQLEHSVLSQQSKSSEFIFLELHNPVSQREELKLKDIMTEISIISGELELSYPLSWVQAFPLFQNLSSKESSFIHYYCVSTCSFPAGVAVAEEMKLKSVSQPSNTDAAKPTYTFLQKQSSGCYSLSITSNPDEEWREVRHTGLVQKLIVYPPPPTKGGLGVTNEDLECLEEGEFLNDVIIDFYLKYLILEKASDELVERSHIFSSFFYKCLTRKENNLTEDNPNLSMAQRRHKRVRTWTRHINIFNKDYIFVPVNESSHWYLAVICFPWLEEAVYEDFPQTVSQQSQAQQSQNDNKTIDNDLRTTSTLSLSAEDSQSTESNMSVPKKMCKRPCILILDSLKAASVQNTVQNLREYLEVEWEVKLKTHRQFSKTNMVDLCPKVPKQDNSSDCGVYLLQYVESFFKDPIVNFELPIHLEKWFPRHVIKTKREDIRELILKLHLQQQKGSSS

[7] = biological target: T6, Sentrin-specific protease 8 (Homo sapiens, UniProt Q96LD8); format: functional;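 also: luminescence read-out of SENP8 inhibition, dose-response confirmation following an ultra-high-throughput screen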
T6 sequence (Q96LD8 whole entry): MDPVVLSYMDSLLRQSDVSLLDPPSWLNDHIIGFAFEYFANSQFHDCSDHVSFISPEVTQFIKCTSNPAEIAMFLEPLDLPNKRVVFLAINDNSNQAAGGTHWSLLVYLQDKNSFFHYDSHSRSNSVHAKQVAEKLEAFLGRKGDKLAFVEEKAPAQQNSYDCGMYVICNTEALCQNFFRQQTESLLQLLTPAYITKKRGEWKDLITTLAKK

Caspase-3 = biological target: T7, Caspase-3 (Homo sapiens, UniProt P42574); format: functional;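 also: Dose-response selectivity test against caspase-3 for candidate inhibitors of sentrin-specific proteases (SENPs)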
T7 sequence (P42574 whole entry): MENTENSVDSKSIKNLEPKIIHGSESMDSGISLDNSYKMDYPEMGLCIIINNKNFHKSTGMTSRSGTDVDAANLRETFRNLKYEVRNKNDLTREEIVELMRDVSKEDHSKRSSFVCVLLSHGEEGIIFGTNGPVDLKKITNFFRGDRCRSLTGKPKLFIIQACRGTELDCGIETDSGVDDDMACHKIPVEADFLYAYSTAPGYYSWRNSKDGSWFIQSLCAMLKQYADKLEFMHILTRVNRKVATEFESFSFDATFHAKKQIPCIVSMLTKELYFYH

[8] = cytotoxicity in OVCAR8 ovarian cancer cells, dose response, PAX8 project, cell-based, plate reader, dry powder samples (AID 743197); format: functional; conditions: OVCAR-8
[9] = IGROV1 ovarian cancer cell cytotoxicity, dose response, PAX8 inhibitor project, plate reader, dry powder samples (AID 743043); format: functional, cell-based; conditions: IGROV-1
[10] = NIH:OVCAR-3 ovarian cancer cell cytotoxicity, dose response, PAX8 inhibitor project, plate reader, dry powder samples (AID 743044); format: functional, cell-based
Paired box protein Pax-8 = Paired box protein Pax-8 (Homo sapiens, UniProt Q06710); test: inhibitors of PAX8-driven TPO luciferase reporter, dose response, RMG-I cells, cherry-pick (AID 687027); format: functional, cell-based;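 also: luciferase reporter driven by Pax8 target thyroperoxidase promoter measured by SteadyGlo luminescence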
Large T antigen = Large T antigen (Simian virus 40, UniProt P03070); format: functional, Betapolyomavirus macacae;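 also: Confirmatory-stage PubChem screen for compounds that inhibit SV40 T antigen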
[11] = biological target: T8, Carboxy-terminal domain RNA polymerase II polypeptide A small phosphatase 1 (Homo sapiens, UniProt Q9GZU7); test: inhibitors of CTDSP1, concentration-response testing, biochemical assay, absorbance-based, actives from ultra-high-throughput screening (AID 540297); format: functional
T8 sequence (Q9GZU7 whole entry): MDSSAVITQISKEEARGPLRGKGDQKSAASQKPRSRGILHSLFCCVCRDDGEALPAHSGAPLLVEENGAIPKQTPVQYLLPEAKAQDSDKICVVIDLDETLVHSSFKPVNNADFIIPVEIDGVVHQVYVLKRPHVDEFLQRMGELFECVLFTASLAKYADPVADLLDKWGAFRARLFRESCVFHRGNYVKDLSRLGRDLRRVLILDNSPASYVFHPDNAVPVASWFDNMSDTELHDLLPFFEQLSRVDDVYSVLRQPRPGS

Paired box protein Pax-8, sequence (Q06710 whole entry): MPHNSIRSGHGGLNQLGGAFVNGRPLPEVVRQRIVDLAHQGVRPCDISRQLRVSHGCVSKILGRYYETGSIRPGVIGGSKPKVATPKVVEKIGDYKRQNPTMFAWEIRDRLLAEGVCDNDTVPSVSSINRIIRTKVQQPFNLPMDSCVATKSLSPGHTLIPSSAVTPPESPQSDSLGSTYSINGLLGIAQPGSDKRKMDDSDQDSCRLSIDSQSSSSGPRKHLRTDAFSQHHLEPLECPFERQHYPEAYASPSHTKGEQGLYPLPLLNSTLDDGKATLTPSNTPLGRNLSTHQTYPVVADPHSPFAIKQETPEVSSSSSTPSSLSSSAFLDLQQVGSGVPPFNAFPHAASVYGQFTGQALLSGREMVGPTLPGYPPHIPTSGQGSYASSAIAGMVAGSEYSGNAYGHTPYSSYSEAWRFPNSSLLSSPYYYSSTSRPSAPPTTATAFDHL
Large T antigen, sequence (P03070 whole entry, the tested form may be a part): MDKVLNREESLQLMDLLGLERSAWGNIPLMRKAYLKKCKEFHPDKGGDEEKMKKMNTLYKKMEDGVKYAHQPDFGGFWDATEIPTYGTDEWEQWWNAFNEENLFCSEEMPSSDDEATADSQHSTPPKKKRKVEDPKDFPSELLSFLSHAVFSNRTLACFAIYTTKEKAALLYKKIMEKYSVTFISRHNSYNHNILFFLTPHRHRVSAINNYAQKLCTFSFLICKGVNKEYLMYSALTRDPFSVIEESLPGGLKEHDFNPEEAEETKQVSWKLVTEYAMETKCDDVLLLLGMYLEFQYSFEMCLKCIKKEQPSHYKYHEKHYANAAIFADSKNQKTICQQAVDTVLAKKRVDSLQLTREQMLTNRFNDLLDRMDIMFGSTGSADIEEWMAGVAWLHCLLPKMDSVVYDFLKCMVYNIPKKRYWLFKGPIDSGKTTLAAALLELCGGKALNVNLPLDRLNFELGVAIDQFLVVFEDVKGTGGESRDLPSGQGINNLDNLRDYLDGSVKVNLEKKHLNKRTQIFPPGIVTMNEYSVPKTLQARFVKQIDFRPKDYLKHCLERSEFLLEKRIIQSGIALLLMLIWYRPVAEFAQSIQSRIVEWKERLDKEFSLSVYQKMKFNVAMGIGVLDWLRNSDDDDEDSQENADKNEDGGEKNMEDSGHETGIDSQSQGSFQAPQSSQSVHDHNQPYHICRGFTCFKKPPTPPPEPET
FAD-linked sulfhydryl oxidase ALR, sequence (P55789 whole entry): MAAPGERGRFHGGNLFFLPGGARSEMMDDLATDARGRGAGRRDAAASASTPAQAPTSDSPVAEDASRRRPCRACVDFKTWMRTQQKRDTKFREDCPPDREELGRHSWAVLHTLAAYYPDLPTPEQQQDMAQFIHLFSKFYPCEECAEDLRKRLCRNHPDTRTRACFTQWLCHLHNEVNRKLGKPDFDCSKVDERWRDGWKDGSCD

## COc1cc(/C=N/NC(=O)c2cc(-c3c(C)nn(-c4ccccc4)c3C)[nH]n2)ccc1O
[1]
  CC50: 90 µM (active)
Streptococcus
  EC50: 4.37 µM (active)
[2]
  AC50: 0.105 µM (active)
Streptokinase A
  EC50: 43.9 µM (inconclusive)
[3]
  EC50: 4.04 µM (active)
[4]
  IC50: 39.1 µM (active)

## Cn1cnnc1SCC(=O)Nc1ncc([N+](=O)[O-])s1
Caspase-6
  AC50: 3.04 µM (active)

## c1ccc(Nc2ncnc3c2oc2ccccc23)cc1
[5]
  IC50: > 100 µM (inactive)
[6]
  IC50: 11.9 µM (active)
[7]
  IC50: > 100 µM (inactive)
Caspase-3
  IC50: 31.3 µM (active)

## COc1ccc(S(=O)(=O)N(C)C[C@@H]2OCCCC[C@H](C)Oc3ccc(NS(=O)(=O)c4ccccc4)cc3C(=O)N([C@H](C)CO)C[C@H]2C)cc1
[8]
  AC50: > 70 µM (inactive)
[9]
  AC50: 43.2 µM (active)
[10]
  AC50: 28.2 µM (active)
Paired box protein Pax-8
  AC50: 5.15 µM (active)

## CCO/C=C1/C(=O)N(c2ccc(OC)cc2)C(=O)c2ccccc21
[5]
  IC50: 8.55 µM (active)
[6]
  IC50: 25.8 µM (active)
[7]
  IC50: 11.6 µM (active)
Caspase-3
  IC50: 7.36 µM (active)

## COc1cc(-c2cc(-c3ccc(O)cc3)nc(N)c2C#N)ccc1O
[1]
  CC50: 100 µM (active)
[4]
  IC50: 34.7 µM (active)

## Cc1ccc(C2=NOC(=O)/C2=C\c2ccc(C)o2)cc1
[1]
  CC50: 100 µM (active)
Large T antigen
  IC50: 78.1 µM (active)
[4]
  IC50: 44.8 µM (active)

## O=C(Nc1cccnc1Cl)c1ccc(=O)oc1
Caspase-6
  AC50: 22 µM (active)
[11]
  IC50: 17.8 µM (active)
